In brackets after ≈: the same amount, converted by molar mass.
Columns and labels:
[1] = target: T1, Histone-lysine N-methyltransferase SMYD3 (Homo sapiens) (UniProt Q9H7B4); experiment: Displacement of 3H-SAM from SMYD3 (unknown origin) using biotinylated-MAP3K2 as substrate at 10 uM incubated for 45 mins by SPA assay relative to control
T1 sequence (whole entry): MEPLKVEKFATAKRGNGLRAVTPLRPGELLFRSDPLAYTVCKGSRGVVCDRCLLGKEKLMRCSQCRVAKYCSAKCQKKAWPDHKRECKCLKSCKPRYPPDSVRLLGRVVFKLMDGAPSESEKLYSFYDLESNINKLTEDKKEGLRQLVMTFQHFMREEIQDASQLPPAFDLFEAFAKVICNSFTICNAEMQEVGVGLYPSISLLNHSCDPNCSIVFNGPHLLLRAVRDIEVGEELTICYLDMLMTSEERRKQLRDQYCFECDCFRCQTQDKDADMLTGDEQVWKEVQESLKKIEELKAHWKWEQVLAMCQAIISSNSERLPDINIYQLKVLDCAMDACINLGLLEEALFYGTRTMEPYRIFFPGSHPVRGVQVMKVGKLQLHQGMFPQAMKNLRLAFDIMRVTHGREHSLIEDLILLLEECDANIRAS

[2] = Aqueous solubility of compound at pH 7.4 incubated for 24 hrs by HPLC-UV spectroscopy; format: physicochemical; details: aqueous medium
[3] = Stability in human plasma assessed as compound remaining measured after 2 hrs by LC-MS/MS analysis; format: ADME, cell-free; details: read-out: Stability
[4] = target: T2, Histone-arginine methyltransferase CARM1 (Homo sapiens, UniProt Q86X55); experiment: Binding affinity to PRMT4 (unknown origin) assessed as dissociation constant by ITC analysis
T2 sequence (Q86X55 whole entry): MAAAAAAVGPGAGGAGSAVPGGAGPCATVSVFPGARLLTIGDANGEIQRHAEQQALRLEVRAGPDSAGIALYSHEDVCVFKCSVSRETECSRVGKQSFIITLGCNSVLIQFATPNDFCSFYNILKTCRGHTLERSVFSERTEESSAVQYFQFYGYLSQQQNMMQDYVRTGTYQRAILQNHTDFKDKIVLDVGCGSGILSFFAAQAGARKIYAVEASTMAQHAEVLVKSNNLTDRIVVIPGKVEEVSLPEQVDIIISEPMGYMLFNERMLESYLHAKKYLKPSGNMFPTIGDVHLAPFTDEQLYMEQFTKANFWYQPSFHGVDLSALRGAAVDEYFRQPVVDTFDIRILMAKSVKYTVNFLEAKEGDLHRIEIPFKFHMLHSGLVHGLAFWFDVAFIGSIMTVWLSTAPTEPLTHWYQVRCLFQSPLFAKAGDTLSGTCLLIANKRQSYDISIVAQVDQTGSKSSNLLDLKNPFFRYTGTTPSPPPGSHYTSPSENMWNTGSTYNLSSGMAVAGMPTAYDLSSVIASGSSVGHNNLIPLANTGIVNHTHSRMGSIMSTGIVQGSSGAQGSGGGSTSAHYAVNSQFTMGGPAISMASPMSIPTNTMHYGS

[5] = Lipophilicity, log D of compound in 1-octanol at pH 7.4 incubated for 4 hrs by HPLC-UV analysis; format: physicochemical; details: 1-octanol/aqueous phase
[6] = Metabolic stability in human liver microsomes assessed as half life preincubated for 10 mins followed by NADPH addition measured for 60 mins by LC-MS/MS analysis; format: ADME, Microsome; details: time 70 min
[7] = target: T3, Histone-lysine N-methyltransferase SUV39H1 (Homo sapiens) (UniProt O43463); experiment: Displacement of 3H-SAM from SUV39H1 (unknown origin) using biotinylated-histone H3 peptide as substrate at 10 uM incubated for 45 mins by SPA assay relative to control
T3 sequence (whole entry): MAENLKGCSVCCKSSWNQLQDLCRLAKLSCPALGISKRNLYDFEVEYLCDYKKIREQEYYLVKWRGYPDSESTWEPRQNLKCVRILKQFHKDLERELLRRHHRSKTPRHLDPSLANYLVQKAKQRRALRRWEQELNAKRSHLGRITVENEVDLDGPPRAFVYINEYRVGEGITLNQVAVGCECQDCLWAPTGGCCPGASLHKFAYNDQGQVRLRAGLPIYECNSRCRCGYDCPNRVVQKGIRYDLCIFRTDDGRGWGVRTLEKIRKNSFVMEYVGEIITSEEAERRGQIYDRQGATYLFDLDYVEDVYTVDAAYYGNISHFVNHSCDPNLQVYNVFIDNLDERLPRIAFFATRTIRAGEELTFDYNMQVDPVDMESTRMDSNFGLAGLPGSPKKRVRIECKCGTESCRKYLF

[8] = target: Histone-lysine N-methyltransferase, H3 lysine-79 specific (Homo sapiens) (UniProt Q8TEK3); experiment: Displacement of 3H-SAM from DOT1L (unknown origin) at 30 uM incubated for 1 hr in presence of substrate by SPA assay relative to control
Sequence of Histone-lysine N-methyltransferase, H3 lysine-79 specific (Homo sapiens) (Q8TEK3 whole entry, looked up): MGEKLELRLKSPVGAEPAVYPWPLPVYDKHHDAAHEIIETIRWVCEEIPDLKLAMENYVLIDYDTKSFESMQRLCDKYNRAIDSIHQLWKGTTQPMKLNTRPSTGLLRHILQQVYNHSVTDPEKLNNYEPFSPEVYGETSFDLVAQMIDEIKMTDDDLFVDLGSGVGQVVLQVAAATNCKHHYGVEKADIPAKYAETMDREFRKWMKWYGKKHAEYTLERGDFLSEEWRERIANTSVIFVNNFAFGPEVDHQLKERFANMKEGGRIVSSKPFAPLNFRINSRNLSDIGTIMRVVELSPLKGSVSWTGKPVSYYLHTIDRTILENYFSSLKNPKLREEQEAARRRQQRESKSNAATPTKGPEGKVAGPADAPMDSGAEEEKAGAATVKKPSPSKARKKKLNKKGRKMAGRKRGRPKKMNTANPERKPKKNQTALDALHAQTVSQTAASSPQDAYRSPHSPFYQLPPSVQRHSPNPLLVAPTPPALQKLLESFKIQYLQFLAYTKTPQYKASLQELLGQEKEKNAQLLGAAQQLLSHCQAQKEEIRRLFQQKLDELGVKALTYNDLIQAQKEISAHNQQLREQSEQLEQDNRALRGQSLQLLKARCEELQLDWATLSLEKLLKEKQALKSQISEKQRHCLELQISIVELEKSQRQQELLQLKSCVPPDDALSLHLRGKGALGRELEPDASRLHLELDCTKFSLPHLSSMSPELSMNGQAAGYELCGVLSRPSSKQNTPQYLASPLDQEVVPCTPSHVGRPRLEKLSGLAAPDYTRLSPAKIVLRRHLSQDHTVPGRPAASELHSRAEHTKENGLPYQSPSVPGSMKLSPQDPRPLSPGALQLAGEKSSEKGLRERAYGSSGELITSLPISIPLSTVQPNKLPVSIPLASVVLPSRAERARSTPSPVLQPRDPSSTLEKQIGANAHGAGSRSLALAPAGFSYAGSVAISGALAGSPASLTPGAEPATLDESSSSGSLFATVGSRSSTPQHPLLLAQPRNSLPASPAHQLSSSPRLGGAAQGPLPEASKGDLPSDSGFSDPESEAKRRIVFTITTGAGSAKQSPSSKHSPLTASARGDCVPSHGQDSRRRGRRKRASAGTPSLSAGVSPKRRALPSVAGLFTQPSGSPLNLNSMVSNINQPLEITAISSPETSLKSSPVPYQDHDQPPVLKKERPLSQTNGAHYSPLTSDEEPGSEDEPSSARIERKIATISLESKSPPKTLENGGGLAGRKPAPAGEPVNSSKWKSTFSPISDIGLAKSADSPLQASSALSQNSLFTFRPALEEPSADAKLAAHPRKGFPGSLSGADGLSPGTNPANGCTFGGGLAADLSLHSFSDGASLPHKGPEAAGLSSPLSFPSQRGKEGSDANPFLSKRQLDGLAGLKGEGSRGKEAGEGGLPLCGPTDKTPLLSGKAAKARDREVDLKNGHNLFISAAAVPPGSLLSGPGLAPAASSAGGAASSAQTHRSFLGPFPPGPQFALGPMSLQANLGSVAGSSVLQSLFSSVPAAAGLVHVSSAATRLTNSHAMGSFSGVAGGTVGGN

[9] = target: T3, Histone-lysine N-methyltransferase SUV39H1 (Homo sapiens); experiment: Displacement of 3H-SAM from SUV39H1 (unknown origin) using biotinylated-histone H3 peptide as substrate at 30 uM incubated for 45 mins by SPA assay relative to control
[10] = target: T1, Histone-lysine N-methyltransferase SMYD3 (Homo sapiens); experiment: Displacement of 3H-SAM from SMYD3 (unknown origin) using biotinylated-MAP3K2 as substrate at 30 uM incubated for 45 mins by SPA assay relative to control

| inhibition [1] [%] | solubility at 24 h [2] [µg/mL] | remaining at 2 h [3] [%] | Kd [4] [µM] | logD at 4 h [5] | half-life [6] [min] | inhibition [7] [%] | inhibition [8] [%] | inhibition [9] [%] | inhibition [10] [%] | SMILES |
| --- | --- | --- | --- | --- | --- | --- | --- | --- | --- | --- |
| < 25 | 210 (≈ 501 µM) | 71.2 | 25 | -2.27 | 23 | < 25 | – | – | – | CNCCN1CC[C@@H](NC(=O)c2ccc3c(Nc4ccc(CN)cc4)ncnc3c2)C1 |
| < 25 | – | – | 20 | – | – | < 25 | – | – | – | CNCCN1CC[C@H](NC(=O)c2ccc3c(Nc4ccc(CN)cc4)ncnc3c2)C1 |
| – | 187 (≈ 446 µM) | 91.3 | – | -2.16 | 10.9 | – | 11 | < 25 | < 25 | CNCCN1CCC(NC(=O)c2ccc3c(Nc4ccc(CN)cc4)ncnc3c2)C1 (racemic) |
